Test results: paper PMC10439066 (Drugs in R&D, 2023)

Tests used:
AKR1C3 = biological target: T1, AKR1C3 (Homo sapiens, UniProt P42330); test: AKR1C3 biochemical assay; settings: in vitro
T1 sequence (P42330 1-323): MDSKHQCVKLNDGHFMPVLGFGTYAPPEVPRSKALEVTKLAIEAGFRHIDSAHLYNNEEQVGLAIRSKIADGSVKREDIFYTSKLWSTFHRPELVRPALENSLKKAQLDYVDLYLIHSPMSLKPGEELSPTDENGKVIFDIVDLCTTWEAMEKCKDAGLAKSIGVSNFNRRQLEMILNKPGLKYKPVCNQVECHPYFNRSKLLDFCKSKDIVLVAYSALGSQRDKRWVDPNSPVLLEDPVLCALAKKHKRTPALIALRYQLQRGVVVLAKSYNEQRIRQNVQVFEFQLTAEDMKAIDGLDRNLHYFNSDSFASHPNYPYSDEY

recombinant human AKR1C1 = biological target: T2, recombinant human AKR1C1 (Homo sapiens, UniProt Q04828); test: Related enzyme screen; format: biochemical; settings: preclinical screen
T2 sequence (Q04828 1-323): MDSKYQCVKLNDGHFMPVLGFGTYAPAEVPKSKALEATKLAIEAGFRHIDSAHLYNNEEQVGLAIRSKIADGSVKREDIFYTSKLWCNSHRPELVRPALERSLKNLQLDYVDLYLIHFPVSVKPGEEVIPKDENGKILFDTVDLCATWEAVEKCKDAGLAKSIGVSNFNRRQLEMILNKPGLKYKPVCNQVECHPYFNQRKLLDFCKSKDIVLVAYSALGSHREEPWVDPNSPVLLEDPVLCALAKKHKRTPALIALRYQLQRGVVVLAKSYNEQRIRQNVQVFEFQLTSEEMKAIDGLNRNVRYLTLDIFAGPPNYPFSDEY

recombinant human AKR1C4 = biological target: T3, recombinant human AKR1C4 (Homo sapiens, UniProt P17516); test: Related enzyme screen; format: biochemical; settings: preclinical screen
T3 sequence (P17516 1-323): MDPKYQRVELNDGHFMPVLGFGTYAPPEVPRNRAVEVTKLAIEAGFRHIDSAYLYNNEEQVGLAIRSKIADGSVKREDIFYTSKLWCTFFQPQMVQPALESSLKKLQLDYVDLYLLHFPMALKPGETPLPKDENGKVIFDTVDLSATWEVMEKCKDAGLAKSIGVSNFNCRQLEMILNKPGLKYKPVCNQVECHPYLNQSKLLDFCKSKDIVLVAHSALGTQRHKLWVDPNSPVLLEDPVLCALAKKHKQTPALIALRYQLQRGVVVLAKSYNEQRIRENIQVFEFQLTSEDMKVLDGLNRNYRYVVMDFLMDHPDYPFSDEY

human AKR1D1 = biological target: T4, human AKR1D1 (Homo sapiens, UniProt P51857); test: AKR1D1 inhibition, cortisone as model substrate; format: biochemical
T4 sequence (P51857 1-326): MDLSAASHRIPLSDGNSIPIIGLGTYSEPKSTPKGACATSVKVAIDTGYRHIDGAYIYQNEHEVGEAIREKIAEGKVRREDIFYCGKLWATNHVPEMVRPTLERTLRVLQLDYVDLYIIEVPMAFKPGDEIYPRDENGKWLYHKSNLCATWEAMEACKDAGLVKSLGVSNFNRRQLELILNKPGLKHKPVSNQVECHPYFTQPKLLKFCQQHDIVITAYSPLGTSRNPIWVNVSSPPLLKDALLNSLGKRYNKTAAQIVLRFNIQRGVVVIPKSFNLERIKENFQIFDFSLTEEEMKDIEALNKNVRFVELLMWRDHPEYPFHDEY

[1] = system: 134 human targets including G protein-coupled and nuclear receptors, ion channels, transporters, and enzymes; test: Specificity panel
BSEP (vesicle assay) = BSEP (vesicle assay) (Homo sapiens, UniProt O95342); test: Transporter inhibition, vesicle assay; format: in vitro ADME; settings: read-out: Inhibition characteristics in vitro IC50
female rats = test: Repeat-dose in vivo toxicity study, rat; parameters: species or system Wistar strain); settings: up to highest tested dose of 70 mg/kg, 13 weeks, Bayer data on file
female monkeys = test: Repeat-dose in vivo toxicity study, monkey; parameters: species or system cynomolgus macaque monkeys (Macaca fascicularis); settings: cynomolgus monkey
estrogen receptor = settings: cited from earlier work
endometriotic lesions = settings: cited from earlier work
[2] = system: healthy pre- and postmenopausal women; settings: cited from earlier work
[3] = 60 mg BID; cited from earlier work

BSEP (vesicle assay), sequence (O95342 whole entry): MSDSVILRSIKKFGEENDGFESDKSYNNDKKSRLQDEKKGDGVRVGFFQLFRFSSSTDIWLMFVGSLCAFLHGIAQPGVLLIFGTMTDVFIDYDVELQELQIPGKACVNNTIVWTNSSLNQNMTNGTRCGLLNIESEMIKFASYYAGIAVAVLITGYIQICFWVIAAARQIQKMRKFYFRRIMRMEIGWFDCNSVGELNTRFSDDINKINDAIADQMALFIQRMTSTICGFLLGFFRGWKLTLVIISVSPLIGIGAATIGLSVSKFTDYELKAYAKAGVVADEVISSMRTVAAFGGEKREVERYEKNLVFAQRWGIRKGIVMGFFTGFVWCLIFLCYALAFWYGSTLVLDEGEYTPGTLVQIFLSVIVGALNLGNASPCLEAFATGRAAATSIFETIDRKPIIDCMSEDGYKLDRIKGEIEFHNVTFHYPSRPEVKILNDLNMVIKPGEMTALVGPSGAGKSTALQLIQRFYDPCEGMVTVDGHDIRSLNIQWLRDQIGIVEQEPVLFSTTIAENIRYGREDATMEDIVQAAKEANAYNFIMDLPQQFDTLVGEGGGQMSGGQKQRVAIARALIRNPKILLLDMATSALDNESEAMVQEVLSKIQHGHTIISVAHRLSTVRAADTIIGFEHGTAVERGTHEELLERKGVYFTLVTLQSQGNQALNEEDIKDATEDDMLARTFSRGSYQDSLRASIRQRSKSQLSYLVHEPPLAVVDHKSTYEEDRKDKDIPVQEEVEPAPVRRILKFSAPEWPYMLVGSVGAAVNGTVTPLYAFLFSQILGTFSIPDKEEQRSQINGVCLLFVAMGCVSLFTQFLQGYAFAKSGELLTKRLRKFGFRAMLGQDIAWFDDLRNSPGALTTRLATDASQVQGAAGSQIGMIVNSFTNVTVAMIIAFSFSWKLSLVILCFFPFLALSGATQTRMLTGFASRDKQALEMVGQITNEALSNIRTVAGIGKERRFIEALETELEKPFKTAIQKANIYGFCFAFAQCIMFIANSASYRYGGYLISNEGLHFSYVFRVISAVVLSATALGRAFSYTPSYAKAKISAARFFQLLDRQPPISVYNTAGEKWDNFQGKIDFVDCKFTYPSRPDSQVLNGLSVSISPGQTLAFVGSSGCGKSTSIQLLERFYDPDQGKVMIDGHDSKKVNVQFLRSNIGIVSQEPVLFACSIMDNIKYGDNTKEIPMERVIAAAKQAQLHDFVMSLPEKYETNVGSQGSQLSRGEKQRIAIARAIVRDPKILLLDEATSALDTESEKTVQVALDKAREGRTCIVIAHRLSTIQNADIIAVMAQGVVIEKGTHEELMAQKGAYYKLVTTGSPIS

Compound: CN(CCC(=O)O)C(=O)c1ccc2c(c1)CC[C@@H]1[C@@H]2CC[C@]2(C)C(c3cncc(F)c3)=CC[C@@H]12 [BAY1128688]
- IC50 (AKR1C3): < 0.002 µM
- activity against related enzyme (recombinant human AKR1C1): no relevant activity
- activity against related enzyme (recombinant human AKR1C4): no relevant activity
- inhibition of human AKR1D1 activity (human AKR1D1; 100 µM, cortisone as model substrate, Bayer AG, data on file): 11%
- activity against related enzyme (human AKR1D1; preclinical screen): no relevant activity
- interactions in specificity panel [1]: no relevant interactions
- IC50 (BSEP (vesicle assay)): 3.6 µM
- hepatotoxicity (female rats): No hepatotoxicity was observed
- Increase in liver transaminases in animal toxicology study (female monkeys): Not observed in cynomolgus monkey animal toxicology study with BAY1128688
- Isolated increase in serum bilirubin in animal toxicology study (female monkeys): Observed in cynomolgus monkey animal toxicology study with BAY1128688
- agonism or antagonism (estrogen receptor): no relevant agonism or antagonism
- effect on endometriotic lesions compared with vehicle group (endometriotic lesions): reduced endometriotic lesions
- ovarian cyclicity after treatment (endometriotic lesions): remained unchanged
- increases in ALT or AST ([2]; 90 mg OD and 60 mg BID, 2 weeks): no increases
- influence on bile acid metabolism ([2]; exploratory evaluation of bile acids): did not indicate any influence
- ovarian cycles ([2]; healthy premenopausal women, up to 60 mg BID for 28 days): normal ovarian cycles were maintained
- serum androsterone ([2]; multiple doses): dose-dependent increase
- total concentration in human plasma [3]: approximately 10 µM
- unbound maximum steady-state concentration in human plasma [3]: < 0.1 µM
